Columns and labels:
Caco-2 monolayers = test: TEER measurement of tight junction integrity in Caco-2 monolayers; format: cell-based, Human; settings: inhibitor pre-incubated 30 min; for effect of inhibitor on 600-HPTChC65-mediated TEER reduction / tight junction opening: 0.005% (w/v) 600-HPTChC65, 2-h treatment; for effect of inhibitor on chitosan-mediated TEER reduction / tight junction opening: 0.005% (w/v) 600 kDa chitosan, 2-h treatment
Description: Human colon adenocarcinoma Caco-2 cell line was obtained from the American Type Culture Collection (Manassas, VA, USA). The cells were maintained in complete medium (CM; Dulbeco's modified Eagle's medium supplemented with 10% (v/v) fetal bovine serum, 100 units/mL penicillin, 100 µg/mL streptomycin, 1% (v/v) non-essential amino acids and 2 mM L-glutamine) at 37 °C in a humidified atmosphere of 5% CO2. Cells were grown at a density of 6 × 10^4 and 1.5 × 10^5 cells/cm^2 on a transwell insert (0.4 µm pore size; Corning Life Sciences, Tewksbury, MA, USA) for 21 days and 14 days in paracellular and transcellular experiments, respectively. At the start of each experiment, the integrity of the Caco-2 monolayer was assessed by measurement of the transepithelial electrical resistance (TEER), using a chopstick-like electrode connected to a Millicell-ERS® (Millipore, Bedford, MA, USA). Cell monolayers with a TEER value of greater than 300 Ω cm^2 were used in each experiment.
The 21 day-aged Caco-2 monolayers were incubated with transport buffers, i.e., 10 mM MES-HBSS, pH 6.5 on the apical side (the donor compartment) and 25 mM HEPES-HBSS, pH 7.4 on the basolateral side (the receiver compartment) for 30 min at 37 °C. Subsequently, the test chitosan in 1% (w/v) acetic acid was added to the apical side and incubated at 37 °C on an orbital shaker for 4 h. To investigate the tight junction signaling pathway, the monolayers were incubated with either ML-7, RO-318220 or genistein for 30 min at 37 °C prior to addition of the test chitosan. The TEER values were monitored at the indicated time points during the treatment period.
For the measurement of tight junction recovery, each monolayer was incubated with the test chitosan for 1 h prior to replacement with CM for another 24 h in a CO2 incubator at 37 °C. The TEER value was measured at the indicated time points during the 24-h chitosan withdrawal period.

[1] = target: recombinant human P-gp membranes (Homo sapiens, UniProt P08183)
Chain of recombinant human P-gp membranes (P08183 whole entry): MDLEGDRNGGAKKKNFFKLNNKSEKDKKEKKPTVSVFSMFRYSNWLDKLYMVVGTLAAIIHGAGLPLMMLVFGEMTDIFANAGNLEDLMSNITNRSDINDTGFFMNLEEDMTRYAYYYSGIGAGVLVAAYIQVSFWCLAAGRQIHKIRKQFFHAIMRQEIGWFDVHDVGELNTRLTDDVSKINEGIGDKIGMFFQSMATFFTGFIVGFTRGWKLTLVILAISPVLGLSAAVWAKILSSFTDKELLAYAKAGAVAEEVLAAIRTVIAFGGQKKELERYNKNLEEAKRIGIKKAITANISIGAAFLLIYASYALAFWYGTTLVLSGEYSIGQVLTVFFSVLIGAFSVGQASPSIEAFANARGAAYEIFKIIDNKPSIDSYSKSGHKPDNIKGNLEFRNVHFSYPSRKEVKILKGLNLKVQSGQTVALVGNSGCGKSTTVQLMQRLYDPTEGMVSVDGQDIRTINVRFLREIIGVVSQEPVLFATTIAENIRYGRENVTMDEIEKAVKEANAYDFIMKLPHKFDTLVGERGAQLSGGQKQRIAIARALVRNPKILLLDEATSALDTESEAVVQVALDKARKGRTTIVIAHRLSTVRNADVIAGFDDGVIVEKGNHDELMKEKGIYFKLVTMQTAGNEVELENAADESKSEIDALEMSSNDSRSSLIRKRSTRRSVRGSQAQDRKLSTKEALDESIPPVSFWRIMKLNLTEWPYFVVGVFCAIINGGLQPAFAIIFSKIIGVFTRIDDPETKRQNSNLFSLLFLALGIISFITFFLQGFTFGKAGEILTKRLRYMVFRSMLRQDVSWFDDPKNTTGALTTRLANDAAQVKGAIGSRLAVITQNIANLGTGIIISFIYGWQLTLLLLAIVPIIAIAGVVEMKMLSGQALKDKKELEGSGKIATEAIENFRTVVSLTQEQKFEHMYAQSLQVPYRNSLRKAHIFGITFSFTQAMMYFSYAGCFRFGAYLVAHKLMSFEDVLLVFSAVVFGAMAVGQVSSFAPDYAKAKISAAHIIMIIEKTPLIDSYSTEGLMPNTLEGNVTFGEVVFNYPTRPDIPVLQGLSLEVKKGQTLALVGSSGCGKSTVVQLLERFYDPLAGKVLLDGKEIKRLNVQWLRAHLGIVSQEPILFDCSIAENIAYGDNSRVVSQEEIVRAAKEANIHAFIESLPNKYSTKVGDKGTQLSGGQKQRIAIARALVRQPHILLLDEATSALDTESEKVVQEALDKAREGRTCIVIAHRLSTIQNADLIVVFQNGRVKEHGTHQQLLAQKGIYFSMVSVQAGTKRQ
Description: Effect of 600-HPTChC65 on P-gp ATPase activity was determined in recombinant human P-gp membranes with the use of the P-gp-Glo™ assay (Promega, Madison, Wisconsin), according to the manufacturer’s instruction.

| P-gp ATPase activity (change in luminescence signal) [1] | Molecule | effect of inhibitor on 600-HPTChC65-mediated TEER reduction / tight junction opening (Caco-2 monolayers) | effect of inhibitor on chitosan-mediated TEER reduction / tight junction opening (Caco-2 monolayers) |
| --- | --- | --- | --- |
| – | O=S(=O)(c1cccc2c(I)cccc12)N1CCCNCC1 [ML-7] | did not prevent | partially prevent |
| – | Cn1cc(C2=C(c3cn(CCCSC(=N)N)c4ccccc34)C(=O)NC2=O)c2ccccc21 [RO-318220] | did not prevent | no significant effect |
| – | O=c1c(-c2ccc(O)cc2)coc2cc(O)cc(O)c12 [genistein] | did not prevent | no significant effect |
| increased ATPase activity | N-(2-hydroxypropyl)-3-trimethylammonium chitosan chloride [600-HPTChC65] | – | – |
